Converted amounts (≈) assume the structure as drawn.
Columns and labels:
Format in all cases: functional
Conditions in all cases: read-out: ED50 (the source's name)
LOX IMVI = experiment: Cytotoxicity against human LOXIMVI cells by sulforhodamine B method
SK-MEL-2 = experiment: Cytotoxicity against human SK-MEL-2 cells by sulforhodamine B method
SNB-19 = experiment: Cytotoxicity against human SNB19 cells by sulforhodamine B method
U-251 = experiment: Cytotoxicity against human U251 cells by sulforhodamine B method
SW-620 = experiment: Cytotoxicity against human SW620 cells by sulforhodamine B method
HCT-15 = experiment: Cytotoxicity against human HCT15 cells by sulforhodamine B method
A549 = experiment: Cytotoxicity against human A549 cells by sulforhodamine B method
SK-OV-3 = experiment: Cytotoxicity against human SKOV3 cells by sulforhodamine B method

Row | SMILES | EC50 (LOX IMVI) [µg/mL] | EC50 (SK-MEL-2) [µg/mL] | EC50 (SNB-19) [µg/mL] | EC50 (U-251) [µg/mL] | EC50 (SW-620) [µg/mL] | EC50 (HCT-15) [µg/mL] | EC50 (A549) [µg/mL] | EC50 (SK-OV-3) [µg/mL]
1 | C=C[C@@](C)(CC[C@H]1C(C)=CC[C@H]2C(C)(C)CCC[C@]12C)O[C@@H]1O[C@@H](C)[C@H](O)[C@@H](O)[C@H]1OC(C)=O | > 10 | > 10 | > 10 | > 10 | > 10 | > 10 | > 10 | > 10
2 | C=C[C@@](C)(CC[C@H]1C(C)=CC[C@H]2C(C)(C)CCC[C@]12C)O[C@@H]1O[C@@H](C)[C@H](OC(C)=O)[C@@H](O)[C@H]1O | > 10 | > 10 | > 10 | > 10 | > 10 | > 10 | > 10 | > 10
3 | C=C[C@@](C)(CC[C@H]1C(C)=CC[C@H]2C(C)(C)CCC[C@]12C)O[C@@H]1O[C@@H](C)[C@H](O)[C@@H](OC(C)=O)[C@H]1O | > 10 | > 10 | > 10 | > 10 | > 10 | > 10 | > 10 | > 10
4 | C=C[C@@](C)(CCC1=C(C)[C@H](OO)C[C@H]2C(C)(C)CCC[C@]12C)O[C@@H]1O[C@@H](C)[C@@H](OC(C)=O)[C@H](O)[C@H]1O | > 10 | > 10 | > 10 | > 10 | > 10 | > 10 | > 10 | > 10
5 | COc1cccc2c1C(=O)c1c(O)c3c(c(O)c1C2=O)C[C@@](O)(C(=O)CO)C[C@@H]3O[C@H]1C[C@H](N)[C@H](O)[C@H](C)O1 [DOXORUBICIN] | 0.001 (≈ 0.00184 µM) | 0.002 (≈ 0.00368 µM) | 0.002 (≈ 0.00368 µM) | 0.001 (≈ 0.00184 µM) | 0.003 (≈ 0.00552 µM) | 0.006 (≈ 0.011 µM) | 0.001 (≈ 0.00184 µM) | 0.01 (≈ 0.0184 µM)

— ChEMBL document CHEMBL1150608, “Five new labdane diterpenes from Aster oharai” (2002)
